Assay results: US10598672B2, “Methods and compositions for diagnosing and treating loss and/or distortion of taste or smell” (Cyrano Therapeutics, Inc., priority 2014, dated 2020)
Marks after values point to notes of the source that are not given here.

System: patients with hyposmia
Assay: Olfactometry: DT, RT, ME and H for pyridine, nitrobenzene, thiophene, amyl acetate
Assay type: in vivo, human
[1] = after oral treatment vs before treatment, 10 patients
[2] = hyposmic patients TREATED (31) with oral theophylline
[3] = oral theophylline dose 200 mg (6 patients)
[4] = oral theophylline dose 400 mg (6 patients)
[5] = oral theophylline dose 600 mg (14 patients)
[6] = oral theophylline dose 800 mg (5 patients)

## Cn1c(=O)c2[nH]cnc2n(C)c1=O [theophylline]
After intranasal treatment vs before treatment or after oral treatment
  Magnitude estimations for each odor: higher (more intense)
[1]
  DTs and RTs for all odorants: decreased (more sensitive)
  HRs for all odorants: increased
  MEs for all odorants: increased (more sensitive)
[2]
  AMYL ACETATE DT: 1.2 ± 0.6^d,a2 BU
  AMYL ACETATE H: 3 ± 4%
  AMYL ACETATE ME: 17 ± 5^a2%
  AMYL ACETATE RT: 5.5 ± 0.8^d BU
  PYRIDINE DT: 5.7 ± 0.7^c,b2 BU
  PYRIDINE H: −32 ± 6%
  PYRIDINE ME: 40 ± 6%
  PYRIDINE RT: 6.7 ± 0.8^d BU
  THEOPHENE DT: 5.1 ± 0.7^e,a2 BU
  THEOPHENE H: −9 ± 4^a2%
  THEOPHENE ME: 18 ± 4^a2%
  THEOPHENE RT: 5.5 ± 0.8^e,e2 BU
Hyposmic patients after oral treatment (text of Example 9)
  patients who exhibited improved smell function: 60%
[3]
  AMYL ACETATE DT: 8.2 ± 2.1 BU
  AMYL ACETATE H: 8 ± 8%
  AMYL ACETATE ME: 12 ± 11%
  AMYL ACETATE RT: 8.6 ± 1.9 BU
  PYRIDINE DT: 8.4 ± 0.8 BU
  PYRIDINE H: −34 ± 13%
  PYRIDINE ME: 35 ± 15%
  PYRIDINE RT: 9.8 ± 0.9 BU
  THIOPHENE DT: 8.2 ± 1.8 BU
  THIOPHENE H: −14 ± 11%
  THIOPHENE RT: 8.8 ± 2.0 BU
  Thiophene magnitude estimation (%): 10 ± 15 BU
[4]
  AMYL ACETATE DT: 6.0 ± 1.0 BU
  AMYL ACETATE H: 0 ± 0%
  AMYL ACETATE ME: 17 ± 10%
  AMYL ACETATE RT: 6.2 ± 1.7 BU
  PYRIDINE DT: 7.0 ± 1.8 BU
  PYRIDINE H: −35 ± 15%
  PYRIDINE ME: 43 ± 12%
  PYRIDINE RT: 7.8 ± 2.2 BU
  THIOPHENE DT: 6.2 ± 1.9 BU
  THIOPHENE H: −6 ± 1%
  THIOPHENE RT: 9.2 ± 2.4 BU
  Thiophene magnitude estimation (%): 0 ± 0 BU
[5]
  AMYL ACETATE DT: 5.0 ± 1.2^c BU
  AMYL ACETATE H: 14 ± 5%
  AMYL ACETATE ME: 24 ± 8%
  AMYL ACETATE RT: 5.4 ± 1.2^b BU
  PYRIDINE DT: 5.2 ± 0.9^d BU
  PYRIDINE H: −10 ± 8%
  PYRIDINE ME: 50 ± 8%
  PYRIDINE RT: 5.8 ± 1.1^d BU
  THIOPHENE DT: 6.2 ± 1.1 BU
  THIOPHENE H: −19 ± 7%
  THIOPHENE RT: 7.9 ± 1.0 BU
  Thiophene magnitude estimation (%): 26 ± 7 BU
[6]
  AMYL ACETATE DT: 4.0 ± 1.3^d BU
  AMYL ACETATE H: 15 ± 12%
  AMYL ACETATE ME: 17 ± 11%
  AMYL ACETATE RT: 4.5 ± 1.0^b BU
  PYRIDINE DT: 2.8 ± 1.2^a BU
  PYRIDINE H: −20 ± 13%
  PYRIDINE ME: 36 ± 15%
  PYRIDINE RT: 4.0 ± 1.8^d BU
  THIOPHENE DT: 4.0 ± 1.5^d BU
  THIOPHENE H: −15 ± 16%
  THIOPHENE RT: 5.2 ± 1.4 BU
  Thiophene magnitude estimation (%): 29 ± 16 BU
